In this experiment the test system is Human peripheral blood mononuclear cells (PBMC). The experiment in a line: Cytokine Induction in Human Cells (PBMC). The settings on record: 21-24 hours culture, lowest concentration giving cytokine at least 2× negative control; for MEC to Induce Cytokine IFN-alpha: ELISA; for MEC to Induce Cytokine IFN-gamma / MEC to Induce Cytokine TNF-alpha: multiplex bead assay. Type of experiment: cell-based. As to the method:
Whole blood was obtained from healthy human donors and collected by venipuncture into vacutainer tubes or syringes containing EDTA. Human peripheral blood mononuclear cells (PBMC) were purified from the whole blood by density gradient centrifugation. Histopaque 1077 (15 mL, Sigma, St. Louis, Mo.) was transferred to 6×50 mL sterile polypropylene conical tubes. The Histopaque was overlayed with 15-25 mL of blood diluted 1:2 in Hank's Balanced Salts Solution (HBSS) (Gibco, Life Technology, Grand Island, N.Y.). The tubes were then centrifuged at 1370 rpm for 30 minutes at 20° C., with no brake (400λg, GH 3.8A Rotor).
The interface (buffy coat) containing the PBMC was collected and placed in a new sterile 50 mL conical polypropylene centrifuge tube. The PBMC were mixed with an equal volume of HBSS (about 20 mL from the interface and about 20 mL of HBSS), and then centrifuged at 1090 rpm, 10 minutes, 20° C., with brake (270λg, GH 3.8A Rotor). After completing centrifugation, the cells were resuspended in 2 to 3 mL ACK Red blood cell lysis buffer (ammonium chloride potassium solution, Gibco, Life Technology) and incubated for 2-5 minutes at 20° C. Next, HBSS (40 mL) was added to the cells, and the sample was centrifuged at 270×g for 10 minutes at 20° C. The supernatant was decanted, and the cell pellet was resuspended in 5 mL AIM V Medium (Gibco, Life Technology). Cell aggregates and debris were removed by filtering the cell solution through a BD Falcon 70 micron nylon cell strainer (BD Biosciences, San Jose, Calif.).
The number of viable cells was determined by counting with a Miltenyi FACS instrument (Miltenyi Biotec Inc., San Diego, Calif.) or by using a hemacytometer. For determining cell viability with a hemacytometer, the cells were diluted 1/10 in 0.4% trypan blue and HBSS (specifically, 50 microliter of trypan blue+40 microliter of HBSS+10 microliter of cell solution were added to a microfuge tube and mixed). Ten microliters of the diluted cells were then applied to the hemacytometer, and the number of viable PBMC were determined by microscopy.
The PBMC sample was then resuspended in 96-well plates at a concentration of 8×10^5 cells/well in 0.1 mL of AIM-V medium. Each compound was solubilized in DMSO to create a 3 mM stock solution. The stock solution was then further diluted with AIM-V medium to prepare the serial dilutions. The diluted compound (100 microliters) was then transferred to the PBMCs to achieve final compound concentrations of 30, 10, 3.3, 1.1, 0.37, 0.12, 0.04, 0.01 micromolar. The plates also had both positive and negative controls. The negative control wells contained only AIM-V medium with no example compound. The positive control wells contained imiquimod serially diluted to concentrations of 30, 10, 3.3, 1.1, 0.37, 0.12, 0.04, 0.01 micromolar. The plates were then cultured at 37° C./5% CO2 for 21-24 hours. Cell-free supernatants were harvested by centrifuging the 96-well plates at 2100 rpm, 23° C. for 10 minutes. Approximately 160 microliter of the supernatant was then stored in a NUNC 96-well plate, covered with the compression cap and stored at −80° C. until the cytokine analysis was done.
IFN-alpha cytokine levels (picograms/mL) were measured by ELISA (human IFN-alpha, pan specific, Mabtech, Cincinnati, Ohio). IFN-gamma and TNF-alpha levels (picograms/mL) were measured by multiplex bead assay (magnetic beads, R & D Systems, Minneapolis, Minn.) according to the manufacturer's instructions.
Specifically, the minimum effective concentration of each compound (micromolar) was determined as the lowest concentration of the compound that induced a measured cytokine response at a level ([…]) that was at least 2× greater than that observed with the negative control wells.

Here are results for 6 molecules from patent US11370788B2, “Substituted imidazo[4,5-c]quinoline compounds with an N-1 branched group” (3M INNOVATIVE PROPERTIES COMPANY, priority 2018, dated 2022).

Take `CCCCCCOc1ccc(C[C@@H](COCC)n2cnc3c(N)nc4ccccc4c32)cc1` [Example 4, 1-[(1S)-1-(ethoxymethyl)-2-(4-hexoxyphenyl)ethyl]imidazo[4,5-c]quinolin-4-amine]: the “MEC to Induce Cytokine IFN-alpha” value was ≤0.01 µM, the “MEC to Induce Cytokine IFN-gamma” value is ≤0.01 µM and the “MEC to Induce Cytokine TNF-alpha” value is ≤0.01 µM.
On to `CCOC[C@H](Cc1ccc(OCc2ccccc2)cc1)n1cnc2c(N)nc3ccccc3c21` [Example 6, 1-[(1S)-1-[(4-benzyloxyphenyl)methyl]-2-ethoxy-ethyl]imidazo[4,5-c]quinolin-4-amine], for which the “MEC to Induce Cytokine IFN-alpha” value is ≤0.01 µM, the “MEC to Induce Cytokine IFN-gamma” value is ≤0.01 µM and the “MEC to Induce Cytokine TNF-alpha” value was ≤0.01 µM.
`CCCCC(CC)COc1ccc(C[C@@H](COCC)n2cnc3c(N)nc4ccccc4c32)cc1` (stereo partly drawn) [Example 5, 1-[(1 S)-1-(ethoxymethyl)-2-[4-(2-ethylhexoxy)phenyl]ethyl]imidazo[4,5-c]quinolin-4-amine]: the “MEC to Induce Cytokine IFN-alpha” value is 0.37 µM, the “MEC to Induce Cytokine IFN-gamma” value was found to be 0.04 µM and the “MEC to Induce Cytokine TNF-alpha” value is ≤0.01 µM.
For `CCCCCCCCCCCCOc1ccc(C[C@@H](COCC)n2cnc3c(N)nc4ccccc4c32)cc1` [Example 1, 1-[(1 S)-1-[(4-dodecoxyphenyl)methyl]-2-ethoxy-ethyl]imidazo[4,5-c]quinolin-4-amine] the same measures were 3.3 µM, 10 µM and 3.3 µM.
Consider `CCCCOc1ccc(C[C@@H](COCC)n2cnc3c(N)nc4ccccc4c32)cc1` [Example 3, 1-[(1S)-1-[(4-butoxyphenyl)methyl]-2-ethoxy-ethyl]imidazo[4,5-c]quinolin-4-amine], for which the “MEC to Induce Cytokine IFN-alpha” value is ≤0.01 µM, the “MEC to Induce Cytokine IFN-gamma” value is ≤0.01 µM and the “MEC to Induce Cytokine TNF-alpha” value was ≤0.01 µM.
For the molecule `CCCCCCCCOc1ccc(C[C@@H](COCC)n2cnc3c(N)nc4ccccc4c32)cc1` [Example 2, 1-[(1S)-1-(ethoxymethyl)-2-(4-octoxyphenyl)ethyl]imidazo[4,5-c]quinolin-4-amine], the “MEC to Induce Cytokine IFN-alpha” value was found to be 0.12 µM, the “MEC to Induce Cytokine IFN-gamma” value is 0.37 µM and the “MEC to Induce Cytokine TNF-alpha” value was 0.37 µM.
